Data on three compounds can be found in ChEMBL document CHEMBL3351894, “Development and evaluation of ST-1829 based on 5-benzylidene-2-phenylthiazolones as promising agent for anti-leukotriene therapy” (Eur J Med Chem, 2015).

Values after ≈ are worked out from the molar mass of the structure shown. Active and inactive are the calls of the source. The rule behind the calls is not given here. Some results are limits rather than exact numbers.

Data set [1] can be described thus: Cytotoxicity against human U937 cells assessed as cell viability after 48 hrs by WST-1 assay. Type of data set: cell-based. The following applies: U-937, 48 h. In general terms: Tetrazolium dyes change colour on reduction, which living cells bring about.
Data set [2] addresses T1, Polyunsaturated fatty acid 5-lipoxygenase (Homo sapiens, UniProt P09917).
T1 sequence (P09917 whole entry): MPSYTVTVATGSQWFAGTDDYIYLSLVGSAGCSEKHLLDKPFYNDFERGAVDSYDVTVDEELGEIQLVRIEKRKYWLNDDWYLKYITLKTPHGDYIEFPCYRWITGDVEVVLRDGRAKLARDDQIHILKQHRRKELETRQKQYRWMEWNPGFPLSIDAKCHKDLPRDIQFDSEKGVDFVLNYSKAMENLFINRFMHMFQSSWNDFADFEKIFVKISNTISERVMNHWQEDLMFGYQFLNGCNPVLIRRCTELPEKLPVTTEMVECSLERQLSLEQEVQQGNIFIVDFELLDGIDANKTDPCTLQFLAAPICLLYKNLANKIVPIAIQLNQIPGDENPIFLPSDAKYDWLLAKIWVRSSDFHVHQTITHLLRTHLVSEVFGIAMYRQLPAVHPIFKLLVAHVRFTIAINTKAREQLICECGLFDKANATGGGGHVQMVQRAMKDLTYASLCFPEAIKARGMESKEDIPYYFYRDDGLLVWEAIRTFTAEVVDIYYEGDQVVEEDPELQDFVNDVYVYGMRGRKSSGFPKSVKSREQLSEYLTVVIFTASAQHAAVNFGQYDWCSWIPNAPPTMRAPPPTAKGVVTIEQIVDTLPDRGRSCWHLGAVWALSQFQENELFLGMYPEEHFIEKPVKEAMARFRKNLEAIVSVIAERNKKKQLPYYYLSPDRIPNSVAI
The data set is described as follows: Inhibition of 5-LO in human PMNL S100 extract using arachidonic acid as substrate incubated for 15 mins prior to substrate addition measured after 10 mins by HPLC analysis.

Data set [3] in a line: Solubility of the compound in DMSO at RT. It counts as physicochemical.
Data set [4] in a line: Solubility of the compound in PBS at pH 7.4 at RT. Type of data set: physicochemical.
For data set [5], the target named is T2, Polyunsaturated fatty acid 5-lipoxygenase (Homo sapiens) (UniProt P09917).
T2 sequence (whole entry): T1 sequence (P09917 whole entry)
The following applies: 0.01 to 1 uM.
Description: Inhibition of 5-LO in human PMNL using arachidonic acid as substrate assessed as product formation at 0.01 to 1 uM incubated for 15 mins prior to substrate addition measured after 10 mins by HPLC analysis in presence of 10% fetal calf serum

Data set [6] addresses T1, Polyunsaturated fatty acid 5-lipoxygenase. Put plainly: Inhibition of 5-LO in human PMNL using arachidonic acid as substrate assessed as product formation incubated for 15 mins prior to substrate addition measured after 10 mins by HPLC analysis.
Data set [7] in a line: Cytotoxicity against human U937 cells at 30 uM after 48 hrs by LDH assay. Type of data set: cell-based. The following applies: u-937, 48 h.
Data set [8] concerns the target T3, Polyunsaturated fatty acid lipoxygenase ALOX12 (Homo sapiens, UniProt P18054).
T3 sequence (P18054 whole entry): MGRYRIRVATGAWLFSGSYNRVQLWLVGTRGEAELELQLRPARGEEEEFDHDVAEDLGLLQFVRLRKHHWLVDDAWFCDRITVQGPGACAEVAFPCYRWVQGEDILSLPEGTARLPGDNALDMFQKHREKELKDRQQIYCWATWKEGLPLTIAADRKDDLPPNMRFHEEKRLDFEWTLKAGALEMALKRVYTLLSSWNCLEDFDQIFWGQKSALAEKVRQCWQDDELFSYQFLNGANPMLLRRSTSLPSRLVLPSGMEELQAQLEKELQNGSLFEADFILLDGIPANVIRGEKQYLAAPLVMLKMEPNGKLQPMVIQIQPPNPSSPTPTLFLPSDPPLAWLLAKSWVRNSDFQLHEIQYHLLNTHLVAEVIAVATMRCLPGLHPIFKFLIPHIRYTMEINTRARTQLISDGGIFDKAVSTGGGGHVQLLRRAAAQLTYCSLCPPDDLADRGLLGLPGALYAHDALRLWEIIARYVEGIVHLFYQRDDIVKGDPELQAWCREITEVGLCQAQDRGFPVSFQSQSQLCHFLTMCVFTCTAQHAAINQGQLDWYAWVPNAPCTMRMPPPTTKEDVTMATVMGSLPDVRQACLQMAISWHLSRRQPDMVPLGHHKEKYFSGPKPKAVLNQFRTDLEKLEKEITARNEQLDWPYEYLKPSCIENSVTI
The data set is described as follows: Inhibition of 12-LO (unknown origin).

For data set [9], the target named is T2, Polyunsaturated fatty acid 5-lipoxygenase (Homo sapiens). The data set is described as follows: Inhibition of 5-LO in human PMNL using arachidonic acid as substrate assessed as product formation at 1 to 10 uM incubated for 15 mins prior to substrate addition measured after 10 mins by HPLC analysis in presence of 10% fetal calf serum.
The target in data set [10] is T4, Polyunsaturated fatty acid lipoxygenase ALOX15 (Homo sapiens, UniProt P16050).
T4 sequence (P16050 whole entry): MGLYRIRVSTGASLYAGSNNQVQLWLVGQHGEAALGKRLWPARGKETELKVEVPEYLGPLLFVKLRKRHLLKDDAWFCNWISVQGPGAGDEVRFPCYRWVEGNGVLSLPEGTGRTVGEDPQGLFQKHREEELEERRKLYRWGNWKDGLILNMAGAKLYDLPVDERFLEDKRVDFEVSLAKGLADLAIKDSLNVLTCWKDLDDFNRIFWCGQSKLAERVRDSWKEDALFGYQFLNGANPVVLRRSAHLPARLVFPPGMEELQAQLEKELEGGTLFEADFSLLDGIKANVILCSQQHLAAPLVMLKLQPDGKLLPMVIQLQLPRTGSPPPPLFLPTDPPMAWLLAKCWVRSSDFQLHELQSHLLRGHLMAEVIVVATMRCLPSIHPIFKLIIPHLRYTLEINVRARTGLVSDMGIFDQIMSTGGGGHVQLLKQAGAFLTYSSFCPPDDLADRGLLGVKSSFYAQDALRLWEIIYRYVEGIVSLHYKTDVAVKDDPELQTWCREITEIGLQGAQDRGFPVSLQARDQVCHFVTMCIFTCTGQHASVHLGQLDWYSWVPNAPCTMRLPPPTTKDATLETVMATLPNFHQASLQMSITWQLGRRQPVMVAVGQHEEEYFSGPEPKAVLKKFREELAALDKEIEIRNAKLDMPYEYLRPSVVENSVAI
Put plainly: Inhibition of 15-LO1 (unknown origin).

Data set [11] deals with T2, Polyunsaturated fatty acid 5-lipoxygenase (Homo sapiens). The data set is described as follows: Reversible inhibition of 5-LO in human PMNL using arachidonic acid as substrate assessed as product formation incubated for 15 mins followed by compound washout measured after 10 mins by HPLC analysis.

Take `COc1ccc(-c2sc(-c3ccc(Cl)cc3)nc2O)cc1`: the results for the IC50 in data set [1], in data set [2] and in data set [6] were > 30000 nM, 50 nM and 10 nM, respectively. For the same compound, the solubility in data set [3] worked out at 50 mM (≈ 15900 µg/mL); in [4], 0.05 mM (≈ 15.9 µg/mL). Moreover, in [5], the inhibition entry was “Active”. Moreover, the Activity result in data set [7] was “Non-toxic”.
For the compound `COc1ccc(Cc2sc(-c3ccc(Cl)cc3)nc2O)cc1`, the IC50 in data set [1] was > 30000 nM; in [8], > 10000 nM; in data set [2] it was 30 nM; in data set [10] it was > 10000 nM; in data set [6], 140 nM. Moreover, in data set [9], the inhibition result was “inactive”. The solubility in [3] is 100 mM (≈ 33200 µg/mL); in data set [4] it was 0.08 mM (≈ 26.5 µg/mL). Moreover, the Activity in data set [7] was found to be 4.09%.
As for `COc1ccc(/C=C2\SC(c3ccc(C)cc3)=NC2=O)cc1`, the inhibition entry in data set [9] is “inactive”. Besides, the solubility in [3] was determined as 10 mM (≈ 3090 µg/mL); in data set [4], 0.03 mM (≈ 9.28 µg/mL). Further, in data set [11], the inhibition entry was “Active”.

The term IC50 denotes the concentration needed to halve the response being measured. By solubility is commonly meant how much of the substance goes into solution per volume. Low values mean little dissolved substance, high ones much dissolved substance.
